# Measured values taken from US20210290839A1, “SYSTEMS AND METHODS FOR DETECTING AND TREATING BACTERIAL BIOFILMS” (UNIVERSITY OF MARYLAND, COLLEGE PARK, priority 2017, published 2021).
# Entries after “also recorded” stand apart in the source; their conditions may differ.
# Assays:
# Type in all cases: cell-based
# bacterial biofilm [1] = assay: End-point confocal microscopy quantification of bacterial biofilm thickness (FIG. 8); conditions: Combination: 100 μM autoinducer-2 analog isobutyl DPD plus 0.125V AC at 10 MHz offset by 0.125V DC, compared with either alone
# Source text: FIG. 8 is a bar graph showing the results of end-point confocal microscopy quantification of bacterial biofilm thickness for different treatment conditions, including combined electrical measuring and quorum sensing inhibitors (e.g., autoinducer-2 analog).
# Although the preceding paragraphs address the bioelectric effect based on antibiotics, similar results can be obtained with other antimicrobial agents, such as quorum sensing inhibitors. In particular, FIG. 8 illustrates the results of experiments for different treatment conditions using autoinducer-2 analog. “LB control” represents an experiment where no electric field or autoinducer-2 analog was present. “E-field only” represents an experiment where an electrical signal of 0.125V AC at 10 MHz offset by 0.125V DC was applied to electrodes, without any autoinducer-2 analog present. “AI-2 analog” represents an experiment where autoinducer-2 analog is introduced (e.g., 100 μM autoinducer-2 analog isobutyl DPD) without any electrical signal applied to the electrodes. “Combination” represents an experiment where the electrical signal is applied to the electrodes and autoinducer-2 analog is introduced.
# [2] = test system: Escherichia coli (K12 W3110) biofilm; assay: Real-time impedance sensing of biofilm during 24-hour treatment period (FIG. 6A); conditions: BE: gentamicin 10 μg/ml plus sensing, AC 50 mV at 100 Hz, 30 s of every 150 s; 24-hour treatment of 24-hour biofilm; increase corresponds to removal of biofilm
# Description: (§1) In particular, each experiment employed a flow system including a growth media reservoir, waste reservoir, and the detecting device connected using polymer tubing and luer connectors in between the reservoirs. Fluid was pumped through the flow system by a peristaltic pump. The detecting device and tubing were placed in an incubator maintained at 37° C., to mimic the temperature found in an inserted catheter. Escherichia coli (K12 W3110) were cultured in incubator at 37° C. and then diluted to an OD600 of 0.25. 1 ml of the diluted E. coli solution was then introduced into the catheter tube directly via syringe. The bacteria were allowed to attach to the interior surface under static (no flow) conditions for 2 hours (referred to as the Seeding phase). […] Throughout the Growth phase, the system impedance (Z) is measured by the detecting device every 2 minutes, with the relative change being used to monitor biofilm formation. […]
# As noted above, the sensing voltage applied to the electrodes of the detecting device 300 can also synergistically enhances any antimicrobial agent present to deliver a bioelectric effect. FIG. 6A illustrates the measured impedance characteristics in experiments employing a detecting device fabricated according to the structure of FIGS. 3A-3B and employing a benchtop potentiostat as the voltage source. […]
# bacterial biofilm [3] = assay: Real-time fractional relative change of impedance during treatment with threshold-triggered 100 mV signal (FIG. 7); conditions: 24 hour treatment
# Description: FIG. 7 illustrates the fractional relative change of impedance measurements in experiments similar to that of FIG. 6B. In particular, treatment is performed by applying a 100 mV signal across the same electrodes used for impedance detection, in combination with near MIC levels of antibiotic, thereby generating a second bioelectric effect. This bioelectric effect was applied at regular intervals for only ˜1/7 of the total 24 hour treatment period.
# The “E-field” curve represents an experiment where an intervallic 100 mV AC electrical signal (e.g., at 1 MHz) in addition to the periodic 5 mV AC detection voltage was applied to the electrodes, but without any antibiotic present. The “BE” curve represents an experiment where an intervallic 100 mV AC electrical signal (e.g., at 1 MHz) in addition to the periodic 5 mV AC detection voltage was applied to the electrodes, and with 10 μg/mL of gentamicin present. The decision to apply the 100 mV AC signal in both experiments was made by logic using the impedance data gathered in the sensing mode (i.e., using the 5 mV AC detection voltage). If the average sensing mode data point was less than a predefined threshold, then the larger 100 mV electric field treatment was applied; otherwise, the system continued in sensing mode with the periodic application of the 5 mV AC detection voltage. […]
# [4] = test system: Escherichia coli (K12 W3110) biofilm; assay: Crystal violet absorbance assay biomass quantification (FIG. 6B); conditions: 24-hour treatment
# Description: as §1, with “syringe.” for “syringe. The bacteria were allowed to attach to the interior surface under static (no flow) conditions for 2 hours (referred to as the Seeding phase).”
# CV absorbance staining was used to quantify the end-point biomass and to validate the impedance measurements of FIG. 6A. […] Optical absorbance at a wavelength (λ) of 590 nm was then measured, with increases corresponding to increased biomass. One-way analysis of variance (ANOVA) was used to determine statistical significance of the biomass quantification results.
# FIG. 6B illustrates the results of the CV absorbance assay for various treatment conditions in experiments employing a detecting device fabricated according to the structure of FIGS. 3A-3B and employing a benchtop potentiostat as the voltage source.
Compound,reduction of biofilm thickness (bacterial biofilm [1]),impedance change during the treatment period [2] [%],"change in 100 Hz impedance at the end of treatment phase (bacterial biofilm [3]; ""Antibiotic"": 10 μg/mL gentamicin with periodic 5 mV AC detection voltage)","change in 100 Hz impedance at the end of treatment phase (bacterial biofilm [3]; ""BE"": 10 μg/mL gentamicin with intervallic 100 mV AC (1 MHz) plus periodic 5 mV AC detection voltage)",end-point biofilm biomass (CV absorbance at 590 nm) ([4]; Anti-only: antibiotic without impedance sensing),end-point biofilm biomass (CV absorbance at 590 nm) ([4]; BE: sensing + antibiotic (gentamicin 10 μg/ml))
"CC(C)CC(=O)C(=O)C(O)CO (stereo not drawn) [autoinducer-2 analog, isobutyl DPD]",substantially improved efficacy in reducing biofilm thickness over either alone,,,,,
gentamicin,,~20,increase in 100 Hz impedance; also recorded: as effective in treating the biofilm,increase in 100 Hz impedance,significantly higher biomass of biofilm,biomass similar to a bacteria-free control
